# Tests used:
# Assay type in all cases: in vivo, human
# central memory T cells [1] = test: Cultured IFN-γ ELISPOT after 10-day in vitro stimulation of PBMC, phase 1/2 NSCLC trial of OSE-2101; set-up: key to net SFC of vaccine positive CTL responses: —, indicates SFC response did not meet criteria and vaccine response was negative; details: for Mean SFC / No. Positive Responses: 6 NSCLC patients
# Experimental: (§1) Clinical study design. Both trials were designed as phase 1/2, open label, multi-center, single dose, multiple administration studies to evaluate the safety and immunogenicity of the OSE-2101 immunotherapy. Patients were treated with 1 ml OSE-2101 every 3 weeks for a total of six doses. Each dose was administered subcutaneously in the same vicinity in the deltoid or upper thigh region, or at a contralateral site if local side-effects were observed. The study duration for each completed patient was 18 weeks. Clinical responses or patient survival were not measured in either phase 1/2 studies.
# (§2) Clinical sample processing. Blood or leukapheresis product was obtained from patients at the pre-treatment, the Week 9 and Week 18 time points, 3 weeks after the third and sixth dose of OSE-2101 respectively. Peripheral blood mononuclear cells (PBMC) were isolated from samples within 24 hours of collection using a FICOLL-PAQUE density gradient and cryopreserved in containers designed to ensure optimal freezing (Mr. Frosty, Nalgene). For use, cells were rapidly thawed at 37° C. then transferred to human AB serum-containing medium for work-up.
# (§3) Measurement of central T memory cells responses and T effector memory cells. The CTL responses in 16 total patients (10 colon and six NSCLC) were monitored for CTL responses against each epitope and against the wild-type epitope of epitopes analogs. For each patient, the pre-treatment, Week 9 and Week 18 time points were batch-tested in the same experiment to allow pre- versus post-treatment response comparison in the same experiment. Central T memory cells responses were measured using an IFN-γ enzyme-linked immunospot (cultured ELISPOT) assay following in vitro stimulation of PBMC for 10 days with each vaccine epitope. Briefly, PBMC from each time point were stimulated on day 0 with 10 μg/ml of each epitope individually in replicate in 48-well culture plates (2×10^6 PBMC/well). All cultures were fed with rIL-2 (Endogen, Woburn, Mass.; 10 U/ml final concentration) on days 1, 4 and 7. Ten days after initiation of culture, cells were harvested and tested for activity against specific vaccine peptides and corresponding wild-type peptides of vaccine analogs in the T memory ELISPOT assay. Cells were tested in Millipore IP 96-well plates pre-coated with mouse anti-human IFN-γ antibody (Mabtech USA, Cincinnati, Ohio). Five×10^4 cells and 1.25×10^4 cells from each culture were plated in triplicate wells together with 10^5 irradiated autologous PBMC and 10 μg/ml peptide. As a control, CTL were also tested against an irrelevant HLA-A2.1-binding HBV peptide. After 20 hours incubation, T memory ELISPOT plates were developed by performing sequential incubations with biotinylated anti-human IFN-γ antibody (Mabtech USA), Avidin-Peroxidase Complex (APC, Vector Laboratories, Burlingame, Calif.), and 3-amino-9-ethyl carbazole (AEC) substrate (Sigma Aldrich, St. Louis, Mo.). Spot-forming cells (SFC) were enumerated using a computer-assisted image analysis system (Zeiss KS ELISPOT Reader, Carl Zeiss MicroImaging, Thornwood, N.J.). Data is reported as the net SFC per 5×10^4 cells after subtracting spots induced with the irrelevant HBV peptide.
# central memory T cells [2] = test: Central memory T cell cultured ELISPOT, phase 2 trial in advanced NSCLC
# Experimental: CTL Immune responses measured though cultured Elispot. The immunogenicity was measured in Phase 2 clinical trial on cryopreserved PBMC from each test sample were thawed in 5% human culture medium (RPMI-1640 medium with 25 mM HEPES, supplemented with 5% human AB serum, 4 mM L-glutamine, 0.5 mM sodium pyruvate, 0.1 mM MEM non-essential amino acids, 100 μg/ml streptomycin, and 100 U/ml penicillin) containing 30 μg/ml DNAase. After centrifugation for 5 minutes at 1200 rpm, the cell pellets were resuspended in 5% human culture medium and washed 2 times. For the central Memory T cell cultured ELISPOT assay, 2×10^6/ml PBMC were placed in replicate wells in a 48-well plates and stimulated for 10 days with 10 μg/ml of each peptide. As a positive control, PBMC were also stimulated with a pool of recall viral peptides. Human rIL2 (10 U/ml) was added to the peptide-stimulated cultures at day 1, day 4 and day 7. After 10 days the stimulated cells were harvested and plated at a concentration of 5×10^4/well. Assay wells also received irradiated autologous PBMC (1×10^5/well) and 10 μg/ml peptide, either the vaccine peptide, irrelevant peptide or positive control peptides. Cells stimulated in vitro with each analog epitope were also tested against the corresponding wild-type epitope.
# Data analysis and acceptance criteria. Mean and standard deviation (SD) of spots in replicate wells were calculated in all assays by transferring raw ELISPOT data from each experiment to an Excel-based computer program. Positive vaccine-induced T-cell responses were determined according to the criteria described below.
# Acceptance Criteria for peptide-Induced specific T-cell response through central memory T cells: The positive criteria for CTL responses used in the phase 2 trial was identical to the criteria in the phase 1/2 trials which was established prospectively after analyzing the variability of pre-treatment responses in patients against each vaccine epitope and the irrelevant HBV control epitope. A positive peptide-induced CTL/T memory response to a given epitope met all of the following conditions: 1) was greater than 5 SFC above the irrelevant epitope response, 2) was greater than the mean SFC of the irrelevant epitope response, plus 2 SD, and 3) was two-fold greater than the SFC response in the pre-vaccination sample from the same patient, plus 2 SD. The inclusion of “plus two standard deviations” was used to accommodate the assay variability and served to increase the criteria stringency.
# central memory T cells [3] = test: Cultured IFN-γ ELISPOT after 10-day in vitro stimulation of PBMC, phase 1/2 colon cancer trial of OSE-2101; set-up: key to net SFC of vaccine positive CTL responses: —, indicates SFC response did not meet criteria and vaccine response was negative; details: for Mean SFC: 10 colon patients
# Experimental: as §1, §2, §3
sequence,measurement,setting,value
YLQLVFGIEV [MAGE2.157 WT],Mean SFC,central memory T cells [1]; Week 9,"30.0 SFC per 50,000 cells"
same,No. Positive Responses,central memory T cells [1]; Week 9,2
same,Mean SFC,central memory T cells [1]; Week 18,"66.8 SFC per 50,000 cells"
same,No. Positive Responses,central memory T cells [1]; Week 18,2
same,net SFC of vaccine positive CTL responses,"central memory T cells [1]; NSCLC patient 201, Week 9",—
same,net SFC of vaccine positive CTL responses,"central memory T cells [1]; NSCLC patient 201, Week 18",—
same,net SFC of vaccine positive CTL responses,"central memory T cells [1]; NSCLC patient 502, Week 9","9.3 SFC per 50,000 cells"
same,net SFC of vaccine positive CTL responses,"central memory T cells [1]; NSCLC patient 502, Week 18",—
same,net SFC of vaccine positive CTL responses,"central memory T cells [1]; NSCLC patient 504, Week 9","50.7 SFC per 50,000 cells"
same,net SFC of vaccine positive CTL responses,"central memory T cells [1]; NSCLC patient 504, Week 18","124.7 SFC per 50,000 cells"
same,net SFC of vaccine positive CTL responses,"central memory T cells [1]; NSCLC patient 505, Week 9",—
same,net SFC of vaccine positive CTL responses,"central memory T cells [1]; NSCLC patient 505, Week 18",—
same,net SFC of vaccine positive CTL responses,"central memory T cells [1]; NSCLC patient 532, Week 9",—
same,net SFC of vaccine positive CTL responses,"central memory T cells [1]; NSCLC patient 532, Week 18",—
same,net SFC of vaccine positive CTL responses,"central memory T cells [1]; NSCLC patient 651, Week 9",—
same,net SFC of vaccine positive CTL responses,"central memory T cells [1]; NSCLC patient 651, Week 18","9.0 SFC per 50,000 cells"
same,% of patients with positive CTL/central memory T cell response,"central memory T cells [2]; phase 2, month 9",57%
same,patients with positive CTL/central memory T cell response / patients tested,"central memory T cells [2]; phase 2, month 9",4/7
same,% of patients with positive CTL/central memory T cell response,"central memory T cells [2]; phase 2, month 12",50%
same,patients with positive CTL/central memory T cell response / patients tested,"central memory T cells [2]; phase 2, month 12",2/4
same,% of patients with positive CTL/central memory T cell response,"central memory T cells [2]; phase 2, week 9",27%
same,patients with positive CTL/central memory T cell response / patients tested,"central memory T cells [2]; phase 2, week 9",9/33
same,% of patients with positive CTL/central memory T cell response,"central memory T cells [2]; phase 2, week 18",28%
same,patients with positive CTL/central memory T cell response / patients tested,"central memory T cells [2]; phase 2, week 18",9/32
same,% of patients with positive CTL/central memory T cell response,"central memory T cells [2]; phase 2, week 30",43%
same,patients with positive CTL/central memory T cell response / patients tested,"central memory T cells [2]; phase 2, week 30",10/23
same,Mean SFC,central memory T cells [3]; Week 9,"246.0 SFC per 50,000 cells"
same,Mean SFC,central memory T cells [3]; Week 18,"418.1 SFC per 50,000 cells"
same,net SFC of vaccine positive CTL responses,"central memory T cells [3]; colon patient 551, Week 9",—
same,net SFC of vaccine positive CTL responses,"central memory T cells [3]; colon patient 551, Week 18","45.7 SFC per 50,000 cells"
same,net SFC of vaccine positive CTL responses,"central memory T cells [3]; colon patient 601, Week 9",—
same,net SFC of vaccine positive CTL responses,"central memory T cells [3]; colon patient 601, Week 18",—
same,net SFC of vaccine positive CTL responses,"central memory T cells [3]; colon patient 602, Week 9",—
same,net SFC of vaccine positive CTL responses,"central memory T cells [3]; colon patient 602, Week 18",—
same,net SFC of vaccine positive CTL responses,"central memory T cells [3]; colon patient 603, Week 9","320.0 SFC per 50,000 cells"
same,net SFC of vaccine positive CTL responses,"central memory T cells [3]; colon patient 603, Week 18",—
same,net SFC of vaccine positive CTL responses,"central memory T cells [3]; colon patient 604, Week 9",—
same,net SFC of vaccine positive CTL responses,"central memory T cells [3]; colon patient 604, Week 18",—
same,net SFC of vaccine positive CTL responses,"central memory T cells [3]; colon patient 605, Week 9",—
same,net SFC of vaccine positive CTL responses,"central memory T cells [3]; colon patient 605, Week 18",—
same,net SFC of vaccine positive CTL responses,"central memory T cells [3]; colon patient 606, Week 9",—
same,net SFC of vaccine positive CTL responses,"central memory T cells [3]; colon patient 606, Week 18","24.7 SFC per 50,000 cells"
same,net SFC of vaccine positive CTL responses,"central memory T cells [3]; colon patient 607, Week 9","172.0 SFC per 50,000 cells"
same,net SFC of vaccine positive CTL responses,"central memory T cells [3]; colon patient 607, Week 18","1184.0 SFC per 50,000 cells"
same,net SFC of vaccine positive CTL responses,"central memory T cells [3]; colon patient 608, Week 9",—
same,net SFC of vaccine positive CTL responses,"central memory T cells [3]; colon patient 608, Week 18",—
same,net SFC of vaccine positive CTL responses,"central memory T cells [3]; colon patient 609, Week 9",—
same,net SFC of vaccine positive CTL responses,"central memory T cells [3]; colon patient 609, Week 18",—

# From patent US11191820B2, “Method for inducing early T memory response with short peptides anti-tumor vaccine” (OSE IMMUNOTHERAPEUTICS, priority 2015, dated 2021)
